≈ marks a conversion by molar mass, not a printed value. Calls of active or inactive are those of the source. The rule behind the calls is not given here.
Assays:
HT-29 = experiment: Antiproliferative activity against human HT-29 cells after 72 hrs by CellTiter-Glo assay; assay type: functional, cell-based; conditions: HT-29, 72 h
[1] = molecular target: ALK tyrosine kinase receptor (Homo sapiens, UniProt Q9UM73); experiment: Inhibition of ALK
[2] = Antiproliferative activity against human A2780/E6 cells after 72 hrs by CellTiter-Glo assay; assay type: functional, cell-based; conditions: A2780/E6, 72 h
LoVo = experiment: Antiproliferative activity against human LoVo cells after 72 hrs by CellTiter-Glo assay; assay type: functional, cell-based
MIA PaCa-2 = experiment: Antiproliferative activity against human MIAPaCa2 cells after 72 hrs by CellTiter-Glo assay; assay type: functional, cell-based; conditions: MIA PaCa-2, 72 h
HCT-116 [3] = experiment: Induction of apoptosis in human HCT116 cells assessed as induction of PARP cleavage at 0.005 to 0.5 uM after 24 hrs; assay type: functional, cell-based
[4] = Antiproliferative activity against human KMS11 cells after 72 hrs by CellTiter-Glo assay; assay type: functional, cell-based; conditions: KMS-11, 72 h
HCT-116 [5] = experiment: Antitumor against human HCT116 cells xenografted in CD1 mouse assessed as tumor growth inhibition at 60 mg/kg, po daily administered on day 1, 2, 3 post-implantation for 2 cycles; conditions: HCT-116, po, read-out: TGI
Mus musculus [6] = experiment: Toxicity in CD1 mouse xenografted with human A2780 cells assessed as reversible body weight loss at 30 mg/kg, iv BID administered on day 1, 2, 3 post-implantation measured on day 12; assay type: organism-based; set-up: dose 30 mg/kg, route intravenous; conditions: in vivo
NCI-H1993 = experiment: Antiproliferative activity against human NCI-H1993 cells after 72 hrs by CellTiter-Glo assay; assay type: functional, cell-based; conditions: NCI-H1993, 72 h
[7] = molecular target: Serine/threonine-protein kinase Nek6 (Homo sapiens, UniProt Q9HC98); experiment: Inhibition of NEK6
Mus musculus [8] = experiment: Toxicity in CD1 mouse xenografted with human HCT116 cells assessed as reversible body weight loss at 30 mg/kg, iv BID administered on day 1, 2 post-implantation in weekly schedule of 3 cycles measured on day 32; conditions: in vivo
[9] = Antiproliferative activity against human KU812 cells after 72 hrs by CellTiter-Glo assay; assay type: functional, cell-based; conditions: KU812, 72 h
[10] = molecular target: T1, Receptor-type tyrosine-protein kinase FLT3 (Homo sapiens, UniProt P36888); experiment: Inhibition of FLT3
T1 sequence (P36888 whole entry): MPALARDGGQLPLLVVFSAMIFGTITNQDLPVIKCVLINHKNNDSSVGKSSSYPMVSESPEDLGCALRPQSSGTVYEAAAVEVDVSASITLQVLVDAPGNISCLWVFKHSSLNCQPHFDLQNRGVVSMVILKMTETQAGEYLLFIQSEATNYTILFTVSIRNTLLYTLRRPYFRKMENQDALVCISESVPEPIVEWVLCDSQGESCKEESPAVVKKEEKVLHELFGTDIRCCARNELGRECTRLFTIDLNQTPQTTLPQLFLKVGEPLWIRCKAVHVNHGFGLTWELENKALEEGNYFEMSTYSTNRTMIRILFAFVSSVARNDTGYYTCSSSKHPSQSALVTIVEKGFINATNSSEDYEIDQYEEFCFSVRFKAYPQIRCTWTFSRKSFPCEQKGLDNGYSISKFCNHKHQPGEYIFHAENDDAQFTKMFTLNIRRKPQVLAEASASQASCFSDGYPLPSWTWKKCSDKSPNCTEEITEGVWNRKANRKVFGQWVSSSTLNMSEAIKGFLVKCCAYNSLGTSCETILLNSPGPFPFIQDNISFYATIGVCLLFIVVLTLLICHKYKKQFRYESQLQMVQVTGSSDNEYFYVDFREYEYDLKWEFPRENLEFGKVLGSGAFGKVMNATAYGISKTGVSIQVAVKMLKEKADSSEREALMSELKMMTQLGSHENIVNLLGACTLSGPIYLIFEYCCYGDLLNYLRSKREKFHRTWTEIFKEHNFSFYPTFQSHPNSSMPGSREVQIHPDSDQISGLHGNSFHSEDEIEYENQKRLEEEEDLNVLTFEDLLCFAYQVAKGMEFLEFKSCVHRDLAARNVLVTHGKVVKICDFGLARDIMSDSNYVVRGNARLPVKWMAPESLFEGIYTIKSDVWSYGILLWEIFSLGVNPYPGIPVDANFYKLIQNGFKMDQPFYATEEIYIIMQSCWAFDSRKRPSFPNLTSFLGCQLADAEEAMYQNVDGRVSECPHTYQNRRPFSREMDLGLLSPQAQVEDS

[11] = Oral bioavailability in CD1 mouse at 10 mg/kg administered as single dose by LC/MS/MS analysis; assay type: ADME, organism-based; conditions: in vivo
[12] = Inhibition of PDGFR
A2780 [13] = experiment: Induction of cell cycle arrest in human A2780 cells assessed as accumulation at G2/M phase at 0.005 to 0.5 uM after 24 hrs; assay type: functional, cell-based
[14] = Terminal half life in CD1 mouse at 10 mg/kg, po administered as single dose by LC/MS/MS analysis; assay type: ADME, organism-based; set-up: dose 10 mg/kg, route oral; conditions: in vivo, read-out: beta t1/2 (converted)
[15] = Antiproliferative activity against human 1A9PTX22 cells after 72 hrs by CellTiter-Glo assay; assay type: functional, cell-based; conditions: 1A9/ptx-22, 72 h
A2780 [16] = experiment: Induction of apoptosis in human A2780 cells assessed as induction of PARP cleavage at 0.005 to 0.5 uM after 24 hrs
[17] = Inhibition of casein kinase 2
[18] = molecular target: Serine/threonine-protein kinase PLK2 (Homo sapiens, UniProt Q9NYY3); experiment: Inhibition of PLK2
A2780 [19] = experiment: cells; conditions: Homo sapiens, A2780, 72 h
[20] = AUC (0 to infinity) in CD1 mouse at 10 mg/kg, po administered as single dose by LC/MS/MS analysis; assay type: ADME, organism-based; set-up: time infinity, dose 10 mg/kg, route oral; conditions: plasma
HL-60 = experiment: Antiproliferative activity against human HL60 cells after 72 hrs by CellTiter-Glo assay; assay type: functional, cell-based; conditions: HL-60, 72 h
HCT-116 [21] = experiment: Antiproliferative activity against human HCT116 cells after 72 hrs by CellTiter-Glo assay; assay type: functional, cell-based; conditions: HCT-116, 72 h
HCT-116 [22] = experiment: Antitumor against human HCT116 cells xenografted in CD1 mouse assessed as tumor growth inhibition at 30 mg/kg, iv BID administered on day 1, 2 post-implantation in weekly schedule of 3 cycles measured on day 32; assay type: functional; conditions: read-out: TGI
U2OS = experiment: Induction of cell cycle arrest in human U2OS cells assessed as accumulation of cyclin B1-positive cells at 320 nM after 24 hrs by array scan assay
[23] = Solubility of the compound at pH 7; assay type: physicochemical; conditions: buffer
A2780 [24] = experiment: Antitumor against human A2780 cells xenografted in CD1 mouse assessed as tumor growth inhibition at 30 mg/kg, iv BID administered on day 1, 2, 3 post-implantation measured on day 12; assay type: functional; conditions: read-out: TGI

Chain of Serine/threonine-protein kinase Nek6 (Q9HC98 whole entry): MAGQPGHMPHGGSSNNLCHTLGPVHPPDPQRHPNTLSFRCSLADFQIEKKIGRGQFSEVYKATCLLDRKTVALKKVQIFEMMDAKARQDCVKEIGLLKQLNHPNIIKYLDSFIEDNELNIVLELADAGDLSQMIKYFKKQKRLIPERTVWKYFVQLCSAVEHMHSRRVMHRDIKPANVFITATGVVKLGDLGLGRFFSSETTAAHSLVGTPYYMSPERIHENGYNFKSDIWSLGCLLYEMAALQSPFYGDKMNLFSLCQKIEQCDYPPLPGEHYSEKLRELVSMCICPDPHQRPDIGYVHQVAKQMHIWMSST
Chain of ALK tyrosine kinase receptor (Q9UM73 whole entry): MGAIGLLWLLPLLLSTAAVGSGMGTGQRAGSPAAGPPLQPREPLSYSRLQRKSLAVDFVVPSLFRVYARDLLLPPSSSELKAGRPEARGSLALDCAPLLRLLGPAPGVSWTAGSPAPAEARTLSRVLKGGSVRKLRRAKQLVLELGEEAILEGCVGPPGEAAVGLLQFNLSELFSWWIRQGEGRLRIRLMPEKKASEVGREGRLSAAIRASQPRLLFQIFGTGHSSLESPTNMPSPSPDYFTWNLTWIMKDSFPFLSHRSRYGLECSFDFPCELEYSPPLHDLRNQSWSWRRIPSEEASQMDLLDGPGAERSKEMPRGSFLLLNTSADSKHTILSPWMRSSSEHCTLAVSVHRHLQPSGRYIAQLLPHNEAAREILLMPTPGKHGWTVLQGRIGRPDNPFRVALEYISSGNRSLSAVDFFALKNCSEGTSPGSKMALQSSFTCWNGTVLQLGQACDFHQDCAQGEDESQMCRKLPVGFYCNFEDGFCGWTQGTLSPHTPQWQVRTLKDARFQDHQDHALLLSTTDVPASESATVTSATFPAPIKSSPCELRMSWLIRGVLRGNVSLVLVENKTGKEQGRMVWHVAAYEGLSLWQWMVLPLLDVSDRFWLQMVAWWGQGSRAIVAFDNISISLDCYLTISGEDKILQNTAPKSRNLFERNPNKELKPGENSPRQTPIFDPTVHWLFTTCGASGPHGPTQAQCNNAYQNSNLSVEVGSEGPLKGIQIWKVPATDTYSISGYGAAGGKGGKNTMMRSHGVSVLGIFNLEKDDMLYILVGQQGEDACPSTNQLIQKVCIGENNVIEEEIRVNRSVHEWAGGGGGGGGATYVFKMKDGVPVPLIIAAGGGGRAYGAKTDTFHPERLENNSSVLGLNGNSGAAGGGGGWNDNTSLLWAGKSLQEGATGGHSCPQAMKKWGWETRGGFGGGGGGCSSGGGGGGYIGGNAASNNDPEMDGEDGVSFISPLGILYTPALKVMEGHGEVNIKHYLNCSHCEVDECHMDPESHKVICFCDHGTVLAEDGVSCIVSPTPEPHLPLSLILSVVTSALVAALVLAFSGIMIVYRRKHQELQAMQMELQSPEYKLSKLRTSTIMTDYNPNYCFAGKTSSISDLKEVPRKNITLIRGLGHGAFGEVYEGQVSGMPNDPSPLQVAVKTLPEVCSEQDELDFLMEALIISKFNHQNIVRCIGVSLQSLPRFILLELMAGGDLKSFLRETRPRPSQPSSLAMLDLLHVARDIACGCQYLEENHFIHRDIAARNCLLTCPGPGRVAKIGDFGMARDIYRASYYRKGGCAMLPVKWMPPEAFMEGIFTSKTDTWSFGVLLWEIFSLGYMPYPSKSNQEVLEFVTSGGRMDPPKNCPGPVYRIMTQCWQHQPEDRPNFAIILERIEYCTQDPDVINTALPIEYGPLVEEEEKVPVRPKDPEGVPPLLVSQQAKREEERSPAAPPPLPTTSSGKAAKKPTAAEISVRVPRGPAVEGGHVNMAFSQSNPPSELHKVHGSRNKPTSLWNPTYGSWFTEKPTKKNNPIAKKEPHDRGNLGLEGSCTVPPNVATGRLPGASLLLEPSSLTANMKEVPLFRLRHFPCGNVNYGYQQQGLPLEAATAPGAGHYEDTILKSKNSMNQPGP
Chain of Serine/threonine-protein kinase PLK2 (Q9NYY3 whole entry): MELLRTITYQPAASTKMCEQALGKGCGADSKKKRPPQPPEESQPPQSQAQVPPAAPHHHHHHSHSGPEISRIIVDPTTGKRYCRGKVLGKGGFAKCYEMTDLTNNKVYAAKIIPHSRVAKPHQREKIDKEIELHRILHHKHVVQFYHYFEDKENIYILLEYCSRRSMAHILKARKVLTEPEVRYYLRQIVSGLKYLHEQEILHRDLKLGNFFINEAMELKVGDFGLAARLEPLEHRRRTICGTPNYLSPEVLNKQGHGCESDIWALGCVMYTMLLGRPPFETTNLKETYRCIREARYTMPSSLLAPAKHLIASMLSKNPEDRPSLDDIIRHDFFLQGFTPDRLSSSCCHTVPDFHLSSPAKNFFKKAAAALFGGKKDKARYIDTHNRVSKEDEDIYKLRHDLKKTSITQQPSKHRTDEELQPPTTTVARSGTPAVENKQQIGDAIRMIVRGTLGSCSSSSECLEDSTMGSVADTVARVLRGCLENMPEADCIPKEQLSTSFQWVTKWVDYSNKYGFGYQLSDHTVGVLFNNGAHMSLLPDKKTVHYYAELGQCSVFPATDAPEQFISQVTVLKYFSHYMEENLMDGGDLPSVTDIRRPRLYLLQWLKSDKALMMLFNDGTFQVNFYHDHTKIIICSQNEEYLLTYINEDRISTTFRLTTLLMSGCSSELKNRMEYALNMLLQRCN

IC50 (HT-29): 0.008 µM
IC50 [1]: > 10 µM
IC50 (LoVo): 0.007 µM
IC50 (MIA PaCa-2): 0.052 µM
IC50 (NCI-H1993): 0.195 µM
IC50 [7]: 1.66 µM
IC50 [10]: 1.52 µM
bioavailability [11]: 21%
IC50 [12]: > 10 µM
half-life [14]: 1.44 h
IC50 [17]: 0.14 µM
IC50 [18]: 3.52 µM
IC50 (A2780 [19]): 0.021 µM
AUC(0-inf) [20]: 1.04 µM·h
IC50 (HL-60): 0.016 µM
IC50 (HCT-116 [21]): 0.041 µM
solubility [23]: 72 µM (≈ 36.2 µg/mL)
SMILES: CN1CCN(c2ccc(OC(F)(F)F)c(Nc3ncc4c(n3)-c3c(c(C(N)=O)nn3C)CC4)c2)CC1
IC50 [2]: 0.005 µM
Activity (HCT-116 [3]): Active
IC50 [4]: 0.014 µM
inhibition in vivo at 60 mg/kg (HCT-116 [5]): 70%
Activity (Mus musculus [6]): 19%
Activity (Mus musculus [8]): 14%
IC50 [9]: 0.002 µM
Activity (A2780 [13]): Active
IC50 [15]: 0.038 µM
Activity (A2780 [16]): Active
inhibition in vivo at 30 mg/kg (HCT-116 [22]): 81%
Activity (U2OS): 20%
inhibition in vivo at 30 mg/kg (A2780 [24]): 74%
